Measurements taken from patent US20240109881A1, “Heteroaryl Compounds as Ligand Directed Degraders of IRAK4” (Bristol-Myers Squibb Company, priority 2022, published 2024).

Biological target: T1, IRAK4 (Homo sapiens, UniProt Q9NWZ3)
T1 construct: endogenous in cells; host or cells: THP-1 cells
T1 sequence (Q9NWZ3 1-460): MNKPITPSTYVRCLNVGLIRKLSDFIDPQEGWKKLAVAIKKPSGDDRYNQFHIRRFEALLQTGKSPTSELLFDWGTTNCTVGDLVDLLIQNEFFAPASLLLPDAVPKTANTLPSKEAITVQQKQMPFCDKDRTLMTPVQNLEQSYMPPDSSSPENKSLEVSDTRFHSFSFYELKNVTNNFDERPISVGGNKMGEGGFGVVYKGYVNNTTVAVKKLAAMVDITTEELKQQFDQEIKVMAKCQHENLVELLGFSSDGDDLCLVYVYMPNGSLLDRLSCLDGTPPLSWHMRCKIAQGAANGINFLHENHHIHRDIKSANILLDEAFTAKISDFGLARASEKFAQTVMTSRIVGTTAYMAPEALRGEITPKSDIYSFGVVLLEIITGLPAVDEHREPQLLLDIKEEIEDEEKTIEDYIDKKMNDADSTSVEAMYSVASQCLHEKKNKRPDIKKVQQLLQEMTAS
Assay: LVL THP1 HTRF (THP1 Homogeneous Time Resolved Fluorescence)
Type: cell-based
Conditions: THP1 cells, 18 h incubation with compound; for DC50: read-out: LVL THP1 HTRF EC50
Method in brief: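 IRAK4 HTRF read-out (665/615 nm ratio, anti-IRAK4 d2 acceptor and K donor, 18 h dark incubation at room temperature) on lysates of THP-1 cells. Cells were treated 18 h at 37° C. with 20 nL compound in DMSO, in colorless RPMI with 10% FBS, with a duplicate CTG plate.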

| LVL THP1 HTRF YMIN | DC50 | Structure (SMILES) |
| --- | --- | --- |
| 22.4% | 582 nM | C[C@H](C#N)Nc1cc(-n2ncc3cc(C#N)cnc32)ncc1-n1cc([C@H]2CC[C@H](CCN3CCC(c4ccc(N5CCC(=O)NC5=O)cc4)CC3)CC2)nn1 [P-340] |
| 81.8% | 2.4 nM | C[C@H](C#N)Nc1cc(-n2ncc3cc(C#N)cnc32)ncc1-n1cc([C@H]2CC[C@H](CCN3CCC(c4ccc(N5CCC(=O)NC5=O)nc4)CC3)CC2)nn1 [P-341] |
| 7.1% | 22.1 nM | C[C@H](C#N)Nc1cc(-n2ncc3cc(C#N)cnc32)ncc1-n1cc([C@H]2CC[C@H](CCN3CCC(c4ccc(N5CCC(=O)NC5=O)c(Cl)c4)CC3)CC2)nn1 [P-342] |
| 87.0% | 103 nM | C[C@H](C#N)Nc1cc(-n2ncc3cc(C#N)cnc32)ncc1-n1cc([C@H]2CC[C@H](CCN3CCC(c4ccc(NC5CCC(=O)NC5=O)cc4)CC3)CC2)nn1 (stereo partly shown) [P-343] |
| 8.9% | 91.2 nM | C[C@H](C#N)Nc1cc(-n2ncc3cc(C#N)cnc32)ncc1-n1cc([C@H]2CC[C@H](CCN3CCC(c4cn(C5CCC(=O)NC5=O)nn4)CC3)CC2)nn1 (stereo partly shown) [P-344] |
| 87.0% | 1000 nM | C[C@H](C#N)Nc1cc(-n2ncc3cc(C#N)cnc32)ncc1-n1cc([C@H]2CC[C@H](CCN3CCC(c4ccc(N5CCC(=O)NC5=O)cn4)CC3)CC2)nn1 [P-345] |
| 17.5% | 92.8 nM | C[C@H](C#N)Nc1cc(-n2ncc3cc(C#N)cnc32)ncc1-n1cc([C@H]2CC[C@H](CCN3CCC(n4cc(C5CCC(=O)NC5=O)cn4)CC3)CC2)nn1 (stereo partly shown) [P-346] |
| 13.1% | 94.9 nM | C[C@H](C#N)Nc1cc(-n2ncc3cc(C#N)cnc32)ncc1-n1cc([C@H]2CC[C@H](CCN3CCC(n4cc(NC5CCC(=O)NC5=O)cn4)CC3)CC2)nn1 (stereo partly shown) [P-348] |
| 14.6% | 29.7 nM | C[C@H](C#N)Nc1cc(-n2ncc3cc(C#N)cnc32)ncc1-n1cc([C@H]2CC[C@H](CCN3CCC(n4ccc(C5(F)CCC(=O)NC5=O)cc4=O)CC3)CC2)nn1 (stereo partly shown) [P-349] |
| 3.7% | 2.2 nM | C[C@H](C#N)Nc1cc(-n2ncc3cc(C#N)cnc32)ncc1-n1cc([C@H]2CC[C@H](CCN3CCC(n4ccc(C5CCC(=O)NC5=O)cc4=O)CC3)CC2)nn1 (stereo partly shown) [P-350] |
| 69.0% |  | C[C@H](C#N)Nc1cc(-n2ncc3cc(C#N)cnc32)ncc1-n1cc([C@H]2CC[C@H](CCN3CCC(n4nc(N5CCC(=O)NC5=O)c5ccccc54)CC3)CC2)nn1 [P-351] |
| 4.0% | 13.7 nM | C[C@H](C#N)Nc1cc(-n2ncc3cc(C#N)cnc32)ncc1-n1cc([C@H]2CC[C@H](CCN3CCCN(c4ccc(C5CCC(=O)NC5=O)cc4)CC3)CC2)nn1 (stereo partly shown) [P-354] |
| 58.0% | 327 nM | C[C@H](C#N)Nc1cc(-n2ncc3cc(C#N)cnc32)ncc1-n1cc([C@H]2CC[C@H](CCN3CCCN(c4ccc(N5CCC(=O)NC5=O)cc4)CC3)CC2)nn1 [P-355] |
| 8.6% | 40.6 nM | C[C@H](C#N)Nc1cc(-n2ncc3cc(C#N)cnc32)ncc1-n1cc([C@H]2CC[C@H](CCN3CCN(c4ccc(N5CCC(=O)NC5=O)cc4)[C@@H](C)C3)CC2)nn1 [P-356] |
| 26.7% | 179 nM | C[C@H](C#N)Nc1cc(-n2ncc3cc(C#N)cnc32)ncc1-n1cc([C@H]2CC[C@H](CCN3CCN(c4ccc(N5CCC(=O)NC5=O)cn4)[C@@H](C)C3)CC2)nn1 [P-357] |
| 0.6% | 4.8 nM | C[C@H](C#N)Nc1cc(-n2ncc3cc(C#N)cnc32)ncc1-n1cc([C@H]2CC[C@H](CCN3CCN(c4ccc(N5CCC(=O)NC5=O)cc4)[C@H](C)C3)CC2)nn1 [P-358] |
| −1.9% | 2.5 nM | C[C@H](C#N)Nc1cc(-n2ncc3cc(C#N)cnc32)ncc1-n1cc([C@H]2CC[C@H](CCN3CCN(c4ccc(N5CCC(=O)NC5=O)cn4)[C@H](C)C3)CC2)nn1 [P-359] |
| 4.5% | 27.6 nM | Cc1cc(N2CCC(=O)NC2=O)ccc1N1CCN(CC[C@H]2CC[C@H](c3cn(-c4cnc(-n5ncc6cc(C#N)cnc65)cc4N[C@H](C)C#N)nn3)CC2)CC1 [P-360] |
| 1.2% | 5 nM | C[C@H](C#N)Nc1cc(-n2ncc3cc(C#N)cnc32)ncc1-n1cc([C@H]2CC[C@H](CCN3CCN(c4cccc5c(N6CCC(=O)NC6=O)cncc45)CC3)CC2)nn1 [P-361] |

| LVL THP1 HTRF YMIN | DC50 | Structure (SMILES) |
| --- | --- | --- |
| 14.9% | 238 nM | C[C@H](C#N)Nc1cc(-n2ncc3cc(C#N)cnc32)ncc1-n1cc([C@H]2CC[C@H](CCN3CCN(c4cccc5c(N6CCC(=O)NC6=O)nn(C)c45)CC3)CC2)nn1 [P-362] |
| 5.0% | 7.6 nM | Cc1cc(N2CCN(CC[C@H]3CC[C@H](c4cn(-c5cnc(-n6ncc7cc(C#N)cnc76)cc5N[C@H](C)C#N)nn4)CC3)CC2)ccc1N1CCC(=O)NC1=O [P-363] |
| 3.1% | 1.8 nM | C[C@H](C#N)Nc1cc(-n2ncc3cc(C#N)cnc32)ncc1-n1cc([C@H]2CC[C@H](CCN3CCN(c4ccc(N5CCC(=O)NC5=O)c(Cl)c4)CC3)CC2)nn1 [P-364] |
| 2.0% | 2.3 nM | C[C@H](C#N)Nc1cc(-n2ncc3cc(C#N)cnc32)ncc1-n1cc([C@H]2CC[C@H](CCN3CCN(c4ccc(N5CCC(=O)NC5=O)c(F)c4)CC3)CC2)nn1 [P-365] |
| 2.0% | 10 nM | C[C@H](C#N)Nc1cc(-n2ncc3cc(C#N)cnc32)ncc1-n1cc([C@H]2CC[C@H](CCN3CCN(c4ccc(N5CCC(=O)NC5=O)cc4)CC3)CC2)nn1 [P-366] |
| 7.9% | 116 nM | C[C@H](C#N)Nc1cc(-n2ncc3cc(C#N)cnc32)ncc1-n1cc([C@H]2CC[C@H](CCN3CCN(c4ccc(N5CCC(=O)NC5=O)cc4F)CC3)CC2)nn1 [P-367] |
| 2.9% | 4.4 nM | C[C@H](C#N)Nc1cc(-n2ncc3cc(C#N)cnc32)ncc1-n1cc([C@H]2CC[C@H](CCN3CCN(c4ccc(NC5CCC(=O)NC5=O)cc4)CC3)CC2)nn1 (stereo partly shown) [P-368] |
| 3.0% | 2.2 nM | C[C@H](C#N)Nc1cc(-n2ncc3cc(C#N)cnc32)ncc1-n1cc([C@H]2CC[C@H](CCN3CCN(c4ccc5c(N6CCC(=O)NC6=O)nn(C)c5c4)CC3)CC2)nn1 [P-369] |
| 1.2% | 30.5 nM | C[C@H](C#N)Nc1cc(-n2ncc3cc(C#N)cnc32)ncc1-n1cc([C@H]2CC[C@H](CCN3CCN(c4ccc(N5CCC(=O)NC5=O)nc4)CC3)CC2)nn1 [P-370] |
| 4.1% | 8.7 nM | C[C@H](C#N)Nc1cc(-n2ncc3cc(C#N)cnc32)ncc1-n1cc([C@H]2CC[C@H](CCN3CCN(c4ccc(N5CCC(=O)NC5=O)cn4)CC3)CC2)nn1 [P-371] |
| 40.1% | 235 nM | C[C@H](C#N)Nc1cc(-n2ncc3cc(C#N)cnc32)ncc1-n1cc([C@H]2CC[C@H](CCN3CCN(c4ncc(N5CCC(=O)NC5=O)s4)CC3)CC2)nn1 [P-372] |
| 2.5% | 6.5 nM | C[C@H](C#N)Nc1cc(-n2ncc3cc(Cl)cnc32)ncc1-n1cc([C@H]2CC[C@H](CCN3CCN(c4ccc(C5CCC(=O)NC5=O)cc4)CC3)CC2)nn1 (stereo partly shown) [P-375] |
| 7.2% | 30.3 nM | C[C@H](C#N)Nc1nc(-n2ncc3cc(C#N)cnc32)ncc1C(=O)N[C@H]1CC[C@H](CCN2CCN(c3ccc(C4CCC(=O)NC4=O)cc3)CC2)CC1 (stereo partly shown) [P-376] |
| 3.4% | 8.3 nM | C[C@H](C#N)Nc1nc(-n2ncc3cc(C#N)cnc32)ncc1-n1cc([C@H]2CC[C@H](CCN3CCN(c4ccc(C5CCC(=O)NC5=O)cc4)CC3)CC2)nn1 (stereo partly shown) [P-377] |
| 2.2% | 13 nM | C[C@H](C#N)Nc1cc(Nc2ncc(C#N)cc2Cl)ncc1-n1cc([C@H]2CC[C@H](CCN3CCN(c4ccc(N5CCC(=O)NC5=O)cc4)[C@H](C)C3)CC2)nn1 [P-378] |
| 1.8% | 4 nM | C[C@H](C#N)Nc1cc(Nc2ncc(C#N)cc2Cl)ncc1-n1cc([C@H]2CC[C@H](CCN3CCN(c4ccc(C5CCC(=O)NC5=O)cc4)CC3)CC2)nn1 (stereo partly shown) [P-379] |
| 12.1% | 89.4 nM | C[C@H](C#N)Nc1cc(Nc2ncc(Cl)cc2Cl)ncc1-n1cc([C@H]2CC[C@H](CCN3CCN(c4ccc(C5CCC(=O)NC5=O)cc4)CC3)CC2)nn1 (stereo partly shown) [P-380] |
| 2.1% | 8.3 nM | C[C@H](C#N)Nc1cc(Nc2ncc(C#N)cc2F)ncc1-n1cc([C@H]2CC[C@H](CCN3CCN(c4ccc(C5CCC(=O)NC5=O)cc4)CC3)CC2)nn1 (stereo partly shown) [P-381] |

| Structure (SMILES) | LVL THP1 HTRF YMIN | DC50 |
| --- | --- | --- |
| C[C@H](C#N)Nc1cc(-n2ncc3cc(C#N)cnc32)ncc1-n1cc([C@H]2CC[C@H](CCN3CCC(c4ccc(C5(O)CCC(=O)NC5=O)cc4)CC3)CC2)nn1 (stereo partly shown) [P-339] | 93.1% | 18.6 nM |
| C[C@H](C#N)Nc1cc(-n2ncc3cc(C#N)cnc32)ncc1-n1cc([C@H]2CC[C@H](CCN3CCC(O)(c4ccc(C5CCC(=O)NC5=O)cc4)CC3)CC2)nn1 (stereo partly shown) [P-352] | 2.1% | 3.8 nM |
| C[C@H](C#N)Nc1cc(-n2ncc3cc(C#N)cnc32)ncc1-n1cc([C@H]2CC[C@H](CCN3CCC(O)(c4ccc(N5CCC(=O)NC5=O)cc4)CC3)CC2)nn1 [P-353] | 88.5% | 1000 nM |
